Assay results: patent US20070077653A1, “Modulation of cell intrinsic strain to control matrix synthesis, secretion, organization and remodeling” (MEDTRAIN TECHNOLOGIES, LLC, priority 2003, published 2007)

How the values were obtained:
[1] = system: human tendon internal fibroblast (HTIF)-populated bioartificial tendons (BATs™); assay: Contraction of HTIF-populated BATs (scanner imaging); assay type: cell-based; conditions: 100 pM IL-1β; 24 h post addition
Procedure: (§1) Primary human tendon internal fibroblasts (HTIFs) were isolated from discarded human tendon tissue as described previously (Banes et al., J. Ortho Res., 6, 73-82, 1988). HTIFs from passage 2 to 4 were used in this study. BATs™ were fabricated at a cell density of 2 million cells/ml collagen gel suspension (Vitrogen). Cells were incubated at 37° C. for 24 h before addition of 100 pM IL-1β and inhibitors. BAT™ images were recorded with a scanner and automated imaging software, ScanFlex™ (Flexcell International Corp.). Medium was refreshed every 24 h. On day 5, BATs™ were collected, total RNA extracted with an RNeasy mini kit (QIAGen), cDNA synthesized with SuperScriptII (Invitrogen) and quantitative PCR carried out using a quantitative PCR kit from Ambion. The PCR products were separated on 2% agarose gels and the bands were quantitated in Photoshop. The elasticity of BATs™ was tested on day 5. BATs™ were subjected to a maximum stretch (20% elongation, 1 Hz for 1 h) and the BAT images were recorded for 24 h after stretch.

[2] = system: human tendon internal fibroblast (HTIF)-populated bioartificial tendons (BATs™); assay: Elasticity of BATs by length recovery after maximum stretch; assay type: cell-based; conditions: 100 pM IL-1β
Source text: In order to find a better therapeutic method for tendon/ligament repair and/or replacement, several in vitro models for engineered tendon have been developed recently (Awad et al., J. Biomed. Mater Res., 51(2), 233-240, 2000). One of them is a BioArtificial Tendon (BAT™) model system utilizing tenocyte-populated molded collagen gels (Awad et al., J. Biomed. Mater Res., 51(2), 233-240, 2000). This 3D BAT™ system allows the testing of tenocyte responses to drugs, cytokines and mechanical loading but is too weak to replace conventional grafts materials. In an attempt to modulate the material properties of the cell-gel composite, the influence of IL-1β on the elasticity of human tendon internal fibroblast (HTIF)-populated bioartificial tendons (BATs™) was investigated. IL-1β has been reported to increase the expression of matrix metalloproteinases (MMPs) and elastin. It was hypothesized that IL-1β might increase the elasticity of BATs™ by up-regulating the expression of elastin and down-regulating matrix protein (Collagen I) expression. Gene expression was quantified with quantitative RT-PCR. The elasticity of BATs™ was determined by length recovery after stretch. The influence of IL-1β on the actin cytoskeleton and integrin attachment to matrix in BATs™ was tested +/− cytochalasin D or GRGDTP, respectively.
as §1, with “BATs™ were fabricated at a cell density of 2 million cells/ml collagen gel suspension (Vitrogen). Cells were incubated at 37° C. for 24 h before addition of 100 pM IL-1β and inhibitors.” left out, “Medium was refreshed every 24 h.” left out, “The elasticity of BATs™ was tested on day 5.” left out

Collagen I = assay: Gene expression in BATs by quantitative RT-PCR; assay type: cell-based, human; conditions: 100 pM IL-1β, day 5
Procedure: as §1

MMPs 1, 2, 3 = assay: Gene expression in BATs by quantitative RT-PCR; assay type: cell-based, human; conditions: 100 pM IL-1β, day 5
Procedure: as §1

elastin = assay: Gene expression in BATs by quantitative RT-PCR; assay type: cell-based, human
Procedure: as §1

[3] = system: human tendon internal fibroblasts (HTIFs); assay: Young's modulus of HTIFs by micropipette aspiration; assay type: cell-based; conditions: 100 pM IL-1β, day 5
Procedure: (§2) Primary HTIFs were isolated after surgery from discarded human tendon tissue as described previously (Banes et al., J. Ortho Res., 6, 73-82, 1988). HTIFs from passage 2 to 4 were used in this study. HTIFs were allowed to attach and spread for 24 h before addition of 100 pM IL-1β. Medium was refreshed every 24 h. On day 5, cells were collected for cell modulus measurement and gene expression analysis. Young's modulus of HTIFs was measured by aspirating a cell into the bore of a calibrated micropipette with a calibrated vacuum source. The cell-aspiration process was videotaped for subsequent data analysis to calculate the pipette bore size, the steady state pressure required to aspirate a segment of a cell into the pipette bore and the time constant for aspiration. Cytoskeleton change was monitored by rhodamine-phalloidin staining. The expression levels of β-actin was determined by quantitative RT-PCR. Total RNA was extracted with an RNeasy mini kit (QIAGen), cDNA was synthesized with SuperScriptII (Invitrogen) and quantitative PCR was carried out using 18S rRNA as an internal control (Ambion). The PCR products were separated on 2% agarose gels and pixel intensity of the bands was quantitated in Photoshop.

β-actin [4] = assay: β-actin expression by quantitative RT-PCR; assay type: cell-based, human; conditions: 100 pM IL-1β; for reduction of β-actin message: 24 h post addition
Procedure: as §2, with “On day 5, cells were collected for cell modulus measurement and gene expression analysis.” left out

β-actin [5] = assay: Cytoskeleton change by rhodamine-phalloidin staining; assay type: cell-based, human; conditions: 100 pM IL-1β
[6] = system: human tendon internal fibroblast (HTIF) populated bioartificial tendons (BATs™); assay: Material properties (modulus) of BATs; assay type: cell-based; conditions: IL-1β treated BATs
cell modulus = conditions: Wu, H. W. et al., Scanning, 1998; cited from earlier work
gel matrix = assay: Gel matrix contraction in a culture system; assay type: cell-based

interleukin-1beta [IL-1β]
contraction of BATs [1]: reduced the contraction
survival of maximum stretch ([2]; 20% elongation, 1 Hz for 1 h, day 5): survived the maximum stretch
time for elongated BATs to recover to original length post stretch ([2]; after maximum stretch (20% elongation, 1 Hz, 1 h)): 8 h
elasticity of BATs ([2]; tested on day 5): increased the elasticity
expression of Collagen I (Collagen I): down-regulated
expression of MMPs 1, 2, 3 (MMPs 1, 2, 3): up-regulated
expression of elastin (elastin; 100 pM IL-1β, BATs, day 5): up-regulated
reduction of cell modulus ([3]; HTIFs from patient one): 62%
reduction of cell modulus ([3]; HTIFs from patient two): 45%
reduction of β-actin message (β-actin [4]; 2D cultures): more than 50%
reduction of β-actin message (β-actin [4]; 3D cultures (BATs)): more than 50%
message level of β-actin (β-actin [4]; 3D cultures, day 3): returned to normal
cells with disrupted cytoskeletal structure (β-actin [5]; 2D cultures): about 20%
protein level of β-actin (β-actin [5]; 2D cultures, day 5): mostly recovered
fluorescence intensity of rhodamine-phalloidin staining compared to control (β-actin [5]; 3D bioartificial tendons, day 5): much lower
increase of intercellular space at the perpendicular direction of BATs (β-actin [5]; BATs, days 1 and 3): more than 100%
protein level of β-actin (β-actin [5]; rhodamine-phalloidin staining): down regulated
modulus of BATs [6]: reduced the modulus

GRGDTP
stimulation of elastin mRNA by IL-1β (elastin; 100 μg/ml GRGDTP with 100 pM IL-1β): reduced its stimulation by IL-1β
elastin mRNA level (elastin; 100 μg/ml GRGDTP, without IL-1β): did not affect

C=C1[C@@H](C)[C@H]2[C@H](Cc3ccccc3)NC(=O)[C@]23[C@H](OC(C)=O)/C=C/[C@@](C)(O)C(=O)[C@@H](C)C/C=C/[C@H]3[C@@H]1O [cytochalasin D]
cell modulus (cell modulus): decreased cell modulus by up to three fold

Nc1ncnc2c1ncn2[C@@H]1O[C@H](COP(=O)(O)OP(=O)(O)OP(=O)(O)O)[C@@H](O)[C@H]1O [ATP, adenosine triphosphate]
gel matrix contraction (gel matrix): retard gel matrix contraction
